Experiments:
[1] = system: BMDMs cultured with C26 CM; assay: Macrophage polarization of BMDMs cultured with C26 CM (flow cytometry); type: cell-based, C57BL/6 mice; details: 48 hr, PA vs VEH
Procedure: Bone marrow-derived macrophages (BMDMs) were isolated from healthy 10-14-week-old C57BL/6 male mice. Briefly, mice were euthanized by isoflurane overdose. Femurs were cleared of muscle and debris. The epiphyses of the femurs were cut and placed knee-down and spun down in a 1.5 mL tube. Bone marrow was collected and resuspended in complete DMEM (cDMEM; 10% FBS, 1% penicillin/streptomycin) and passed through two 100 μm strainers. Cells were plated on an untreated 10 cm dish in cDMEM and allowed to incubate at 37° C. for 4 hr. Adherent/mature monocytes and dendritic cells were discarded, while floating/immature monocytes were collected. Cells were subjected to RBC lysis and resuspended in bone marrow maintenance media (BMMM; 20% L929-conditioned media in cDMEM). Cells were then plated on surface-treated 6-well plates at a 250 k cells/well seeding density. On day 3, fresh BMMM was added. On day 5, media was aspirated and fresh BMMM was added. For M2 macrophage polarization experiments, 6-day mature macrophages were given either cDMEM+VEH, M2 media (cDMEM with 10 ng/mL IL-4)+VEH, or M2 media+1 μM PA. Cells were incubated for 24 hr. For C26 colon tumor conditioned media (C26 CM) experiments, 6-day mature macrophages were given either serum-free media (SFM)+VEH, 33% C26-conditioned media (C26 CM)+VEH, or 33% C26 CM+1, 2.5, or 5 μM PA. Cells were incubated for 48 hr. After incubation with these different treatments, cells were washed twice with PBS and incubated with 5 mM EDTA PBS at 4° C. for 20 min. Cells were then gently scraped and transferred into flow tubes, spun at 1600 rpm at 4° C. for 5 min, and washed in PBS before antibody staining. Cells were stained and analyzed for macrophages via flow cytometry as described above with the addition of analyzing macrophage phenotypes. From the CD11b^+CD68^+ macrophage population, macrophage phenotypes were determined based on CD206 and CD11c expression. CD206^−CD11c^− cells were identified as M0 macrophages; CD206^−CD11c^+ as M1 macrophages; CD206^+CD11c^− cells as M2 macrophages; CD206^+CD11c^+ as M1-M2 transitional macrophages. All cells were measured using a FACS Aria II (BD) and analyzed using FlowJo (BD Biosciences). Three independent experiments were carried out for each in vitro assessment.

[2] = system: DSS-induced chronic colitis; assay: DSS mouse model, Experiment 1: chronic colitis; type: in vivo, C57BL/6 female mice
Procedure: Experiment 1—Chronic Colitis: 14-week-old C57BL/6 female mice were given 3 cycles of DSS. Each cycle consisted of 7 days on DSS (cycle 1: 1%; cycle 2: 1.5%, cycle 3: 1%), immediately followed by 7 days of regular drinking water. Either vehicle or panaxynol was administered 3×/week beginning on the day prior to the first DSS cycle (day −1) until study completion (FIG. 9A). To ensure the induction of colitis and to quantify disease states, colitis symptoms were monitored 3×/week using a pre-established disease activity index (DAI), which quantifies bodyweight loss, stool consistency, and rectal bleeding to produce an overall symptom score; a higher score correlates with worsened disease. Mice were euthanized on day 42—one day after the last dose of panaxynol was given. Data presented in FIG. 9A-9F was obtained from 2 cohorts of Experiment 1—Chronic Colitis.
Panaxynol (PA; C17H24O) was purchased from Biopurify Pytochemicals Ltd in sealed 5 mg/mL vials in pure 95% ethanol and stored at −20° C. PA was prepared fresh on the day of treatment by diluting in H2O to 1 mg/mL for administration (p.o.) at a dosage of 2.5 mg/kg. This dosage was chosen following a pilot dose-response study to determine PA's efficacy. PA or VEH was administered 3×/week via oral gavage using flexible plastic tubing gavage needles (Instech, Cat #FTP-20) for a total of 12 weeks.
All mice underwent the same symptom monitoring and scoring. Body weights and symptom scores were determined […] to quantify disease state, with a higher score indicative of a worsened disease state. Symptom scores were calculated by scoring percent body weight loss, stool consistency, and rectal bleeding as previously described. Briefly, fresh colonic evacuates were smeared onto “Hemoccult” tape (Beckman Coulter) to assess severity of diarrhea and were tested with developer (Beckman Coulter) to assess rectal bleeding. Stool consistency was scored as follows: solid cylinder (0), soft cylinder and easily spreadable (2), and noncylindrical or runny (4). Bleeding was scored as follows: no positive detection of blood (0), detection of blood but not grossly visible (2), and gross visibility of blood (4). Body weight was calculated as percent bodyweight loss: 0%-5% (0), 6%-10% (1), 11%-15% (2), 15%-20% (3), 20%-25% (4), and >25% (5). Scores of all three categories were summed to obtain an overall symptom score for each mouse.
Prior to euthanasia, colonoscopies were performed (n=3/group) to visualize the colonic tissue and quantify the severity of disease (colitis and colorectal tumors) using an established protocol. Briefly, mice were anesthetized with isoflurane to perform a detailed endoscopic examination in which the endoscope was gently inserted into the rectum and through the anus. Air was applied to slowly set apart the intestinal walls for examination. As the scope advanced, pictures were taken frequently and the following were meticulously assessed and scored by the blinded primary investigator using the well-established scoring system to integrate evaluation of intestinal inflammation (i.e., focal lesions (edematous areas of mucosa, erosions/reddened areas, ulcers), perianal region findings (diarrhea, bloody anal discharge, or prolapse), transparency of the colonic wall (visualization of the intramural blood vessels), and presence of intestinal bleeding) and tumors. Scoring was performed as previously described with no modifications. Upon completion of colonoscopies, mice were placed on a warm pad set at 37° C. for 5 min.

C=CC(O)C#CC#CC/C=C\CCCCCCC (stereo in doubt) [PA, 3(R)-(9Z)-heptadeca-1,9-dien-4,6-diyn-3-ol]
relative abundance of M0 macrophages [1]: No significant differences
relative abundance of M1-M2 macrophages [1]: No significant differences
relative abundance of M1 macrophages [1]: No significant differences
relative abundance of pro-tumoral M2 macrophages ([1]; p≤0.05): significantly reduced
rectal bleeding ([2]; DAI, vs DSS+Veh): decreased
stool consistency ([2]; DAI, vs DSS+Veh): improved
reduction in ulcerations (endoscopic score) ([2]; day 42, vs DSS+Veh, p=0.001): 65%
reduction in total lesions (endoscopic score) ([2]; day 42, vs DSS+Veh, p=0.005): 70%
reduction in inflammation (endoscopic score) ([2]; day 42, vs DSS+Veh, p=0.016): 54%
reduction in total endoscopic scores ([2]; day 42, vs DSS+Veh, p=0.016): 52%
reduction in erosions (endoscopic score) ([2]; day 42, vs DSS+Veh, p=0.017): 74%
body weight ([2]; end of study, not significant vs DSS+Veh 20.7±0.4, p=0.862): 20.3 ± 0.7 g
DAI scores ([2]; throughout treatment, vs DSS+Veh): significantly (p≤0.05) improved
